Tests used:
[1] = biological target: T1, menin/MLL binding (biotinylated wild-type or mutated menin and MLL-AF9 fusion protein) (Homo sapiens, UniProt O00255); assay: Assay 1 (Binding Assay): AlphaLISA menin/MLL binding; conditions: 5 nM biotinylated menin, MLL-AF9-FLAG lysate
T1 construct: biotinylated (1) wild-type menin or (2) mutated menin (described in Nature (2012) Vol. 482, pp. 542-548); fused on or other part: Biotin attached chemically (Sulfo-NHS-Biotin); no fused second protein is printed for menin
T1 sequence (O00255 1-459 limits assumed): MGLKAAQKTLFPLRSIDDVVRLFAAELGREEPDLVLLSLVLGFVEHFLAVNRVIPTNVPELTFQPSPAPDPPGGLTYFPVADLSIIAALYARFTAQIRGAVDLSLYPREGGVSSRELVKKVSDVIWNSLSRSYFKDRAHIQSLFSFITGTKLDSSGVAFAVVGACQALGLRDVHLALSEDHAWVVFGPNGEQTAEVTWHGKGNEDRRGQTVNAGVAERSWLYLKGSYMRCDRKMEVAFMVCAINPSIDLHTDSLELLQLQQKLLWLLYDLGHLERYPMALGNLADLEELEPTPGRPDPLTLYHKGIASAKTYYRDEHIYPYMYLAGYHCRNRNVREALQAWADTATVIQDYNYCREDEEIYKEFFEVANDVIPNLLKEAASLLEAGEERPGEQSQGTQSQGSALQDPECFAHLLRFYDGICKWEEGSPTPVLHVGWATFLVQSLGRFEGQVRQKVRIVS
In short: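 Biotinylated E. coli-expressed menin (wild-type or mutant), 5 nM, incubated 30 min RT with compound and HEK293 lysate of MLL1-1,396–AF9-FLAG in pH 7.4 Tris buffer, 5% DMSO, 1 mM DTT. Anti-FLAG acceptor and streptavidin donor beads added, 60 min RT, AlphaLISA signal read. IC50 from four-parameter fit of % inhibition.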

[2] = tested on: human acute monocytic leukemia cell line MV-4-11; assay: Assay 2 (Cell Proliferation Assay), ATP quantitation (CellTiter-Glo); assay type: cell-based; conditions: Homo sapiens, MV4-11, 72 h, MV-4-11 cells, read-out: Assay 2 (EC50, inhibition of cell proliferation)
In short: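 Cells (1.67×10^4/well, 10% FBS medium) incubated ±compound 72 h at 37 °C, 5% CO2; HL-60 served as toxicity control. ATP read by CellTiter-Glo luminescence; % inhibition scaled between DMSO and a potent menin inhibitor at ≥100×LD50.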

IC50 [1] [nM]	EC50 [2] [nM]	Structure (SMILES)
< 100	< 100	CC(C)N(C(=O)c1cc(F)ccc1-n1cc(C2CCCN(Cc3ccc4c(c3)[nH]c(=O)n4CCO)C2)c2ccncc21)C(C)C (stereo not drawn) [Example 84, 5-fluoro-2-(3-(1-((1-(2-hydroxyethyl)-2-oxo-2,3-dihydro-1H-benzo[d]imidazol-5-yl)methyl)piperidin-3-yl)-1H-pyrrolo[2,3-c]pyridin-1-yl)-N,N-diisopropylbenzamide]
< 100	< 100	CC(C)N(C(=O)c1cc(F)ccc1-n1cc(C2CCCN(Cc3ccc4[nH]c(=O)[nH]c4c3)C2)c2ccncc21)C(C)C (stereo not drawn) [Example 84A, 5-fluoro-N,N-diisopropyl-2-(3-(1-((2-oxo-2,3-dihydro-1H-benzo[d]imidazol-5-yl)methyl)piperidin-3-yl)-1H-pyrrolo[2,3-c]pyridin-1-yl)benzamide]
< 100	< 100	CC(=O)OCCn1c(=O)[nH]c2cc(CN3CCC[C@H](c4cn(-c5ccc(F)cc5C(=O)N(C)C(C)C)c5cnccc45)C3)ccc21 [Example 85, (R)-2-(5-((3-(1-(4-fluoro-2-(isopropyl(methyl)carbamoyl)phenyl)-1H-pyrrolo[2,3-c]pyridin-3-yl)piperidin-1-yl)methyl)-2-oxo-2,3-dihydro-1H-benzo[d]imidazol-1-yl)ethyl acetate]
< 100	< 100	CCCCCCCCCCCCCCCCCC(=O)OCCn1c(=O)[nH]c2cc(CN3CCC[C@H](c4cn(-c5ccc(F)cc5C(=O)N(C)C(C)C)c5cnccc45)C3)ccc21 [Example 86, (R)-2-(5-((3-(1-(4-fluoro-2-(isopropyl(methyl)carbamoyl)phenyl)-1H-pyrrolo[2,3-c]pyridin-3-yl)piperidin-1-yl)methyl)-2-oxo-2,3-dihydro-1H-benzo[d]imidazol-1-yl)ethyl stearate]
< 100	< 100	CC(C)N(C(=O)c1cc(F)ccc1-n1cc(C2CCCN(C[C@H]3CC[C@H](NS(C)(=O)=O)CC3)C2)c2ccncc21)C(C)C (stereo partly drawn) [Example 87, 5-fluoro-N,N-diisopropyl-2-(3-(1-(((1r,4r)-4-(methylsulfonamido)cyclohexyl)methyl)piperidin-3-yl)-1H-pyrrolo[2,3-c]pyridin-1-yl)benzamide]
< 100	< 100	CC(C)N(C)C(=O)c1cc(F)ccc1-n1cc(C2CCCN(Cc3ccc4c(c3)NC(=O)C4(C)C#N)C2)c2ccncc21 (stereo not drawn) [Example 88, 2-(3-(1-((3-cyano-3-methyl-2-oxoindolin-6-yl)methyl)piperidin-3-yl)-1H-pyrrolo[2,3-c]pyridin-1-yl)-5-fluoro-N-isopropyl-N-methylbenzamide]
< 100	100 to 1000	CC(C)N(C)C(=O)c1cc(F)ccc1-n1cc(C2CCN(CCN3CCC(NS(C)(=O)=O)CC3)CC2)c2ccncc21 [Example 93, 5-fluoro-N-isopropyl-N-methyl-2-(3-(1-(2-(4-(methylsulfonamido)piperidin-1-yl)ethyl)piperidin-4-yl)-1H-pyrrolo[2,3-c]pyridin-1-yl)benzamide]
< 100	100 to 1000	CC(C)N(C)C(=O)c1cc(F)ccc1-n1cc([C@H]2CC[C@H](N3CCC[C@H]3CO)CC2)c2ccncc21 [Example 96, 5-fluoro-2-(3-(trans-4-((S)-2-(hydroxymethyl)pyrrolidin-1-yl)cyclohexyl)-1H-pyrrolo[2,3-c]pyridin-1-yl)-N-isopropyl-N-methylbenzamide]

Second part, the compound before the results:

Structure (SMILES)	IC50 [1] [nM]	EC50 [2] [nM]
CCN(C(=O)c1cc(F)ccc1-n1cc(C2CCCN(Cc3ccc4[nH]c(=O)[nH]c4c3)C2)c2ccncc21)C(C)C (stereo not drawn) [Example 47, N-ethyl-5-fluoro-N-isopropyl-2-(3-(1-((2-oxo-2,3-dihydro-1H-benzo[d]imidazol-5-yl)methyl)piperidin-3-yl)-1H-pyrrolo[2,3-c]pyridin-1-yl)benzamide]	< 100	< 100
CCN(C(=O)c1cc(F)ccc1-n1cc(C2CCCN(Cc3ccc4c(c3)[nH]c(=O)n4CCO)C2)c2ccncc21)C(C)C (stereo not drawn) [Example 49, N-ethyl-5-fluoro-2-(3-(1-((1-(2-hydroxyethyl)-2-oxo-2,3-dihydro-1H-benzo[d]imidazol-5-yl)methyl)piperidin-3-yl)-1H-pyrrolo[2,3-c]pyridin-1-yl)-N-isopropylbenzamide]	< 100	< 100
CCN(C(=O)c1cc(F)ccc1-n1cc([C@@H]2CCCN(Cc3ccc4c(c3)[nH]c(=O)n4CCO)C2)c2ccncc21)C(C)C [Example 49A, (S)-N-ethyl-5-fluoro-2-(3-(1-((1-(2-hydroxyethyl)-2-oxo-2,3-dihydro-1H-benzo[d]imidazol-5-yl)methyl)piperidin-3-yl)-1H-pyrrolo[2,3-c]pyridin-1-yl)-N-isopropylbenzamide]	< 100	< 100
CCN(C(=O)c1cc(F)ccc1-n1cc([C@H]2CCCN(Cc3ccc4c(c3)[nH]c(=O)n4CCO)C2)c2ccncc21)C(C)C [Example 49B, (R)-N-ethyl-5-fluoro-2-(3-(1-((1-(2-hydroxyethyl)-2-oxo-2,3-dihydro-1H-benzo[d]imidazol-5-yl)methyl)piperidin-3-yl)-1H-pyrrolo[2,3-c]pyridin-1-yl)-N-isopropylbenzamide]	< 100	< 100
CC(C)N(C)C(=O)c1cc(F)ccc1-n1cc([C@H]2CC[C@H](N3CCCC3)CC2)c2ccncc21 [Example 55, 5-fluoro-N-isopropyl-N-methyl-2-(3-(trans-4-(pyrrolidin-1-yl)cyclohexyl)-1H-pyrrolo[2,3-c]pyridin-1-yl)benzamide]	< 100	100 to 1000
CC(C)N(C)C(=O)c1cc(F)ccc1-n1cc([C@H]2CC[C@@H](N3CCCC3)CC2)c2ccncc21 [Example 56, 5-fluoro-N-isopropyl-N-methyl-2-(3-(cis-4-(pyrrolidin-1-yl)cyclohexyl)-1H-pyrrolo[2,3-c]pyridin-1-yl)benzamide]	< 100	100 to 1000
CC(C)N(C)C(=O)c1cc(F)ccc1-n1cc([C@H]2CC[C@H](N)CC2)c2ccncc21 [Example 57, 2-(3-(trans-4-aminocyclohexyl)-1H-pyrrolo[2,3-c]pyridin-1-yl)-5-fluoro-N-isopropyl-N-methylbenzamide]	< 100	≥ 1000
CC(C)N(C)C(=O)c1cc(F)ccc1-n1cc([C@H]2CC[C@@H](N)CC2)c2ccncc21 [Example 58, 2-(3-(cis-4-aminocyclohexyl)-1H-pyrrolo[2,3-c]pyridin-1-yl)-5-fluoro-N-isopropyl-N-methylbenzamide]	100 to 1000	≥ 1000
Cc1c(CN2CCC(c3cn(-c4ccc(F)cc4C(=O)N(C)C(C)C)c4cncnc34)CC2)ccc2[nH]c(C#N)cc12 [Example 63, 2-(7-(1-((2-cyano-4-methyl-1H-indol-5-yl)methyl)piperidin-4-yl)-5H-pyrrolo[3,2-d]pyrimidin-5-yl)-5-fluoro-N-isopropyl-N-methylbenzamide]	< 100	< 100
CC(C)N(C)C(=O)c1cc(F)ccc1-c1cn(C2CCCN(Cc3ccc4[nH]c(=O)[nH]c4c3)C2)c2ccncc12 (stereo not drawn) [Example 74, 5-fluoro-N-isopropyl-N-methyl-2-(1-(1-((2-oxo-2,3-dihydro-1H-benzo[d]imidazol-5-yl)methyl)piperidin-3-yl)-1H-pyrrolo[3,2-c]pyridin-3-yl)benzamide]	< 100	≥ 1000
CC(C)N(C)C(=O)c1cc(F)ccc1-n1c(=O)n(C2CCN(CC[C@H]3CC[C@H](NS(C)(=O)=O)CC3)CC2)c2ccncc21 [Example 78, 5-fluoro-N-isopropyl-N-methyl-2-(1-(1-(2-((1r,4r)-4-(methylsulfonamido)cyclohexyl)ethyl)piperidin-4-yl)-2-oxo-1,2-dihydro-3H-imidazo[4,5-c]pyridin-3-yl)benzamide]	< 100	100 to 1000
Cc1c(CN2CCC(n3c(=O)n(-c4ccc(F)cc4)c4cnccc43)CC2)ccc2[nH]c(C#N)cc12 [Example 80, 5-((4-(3-(4-fluorophenyl)-2-oxo-2,3-dihydro-1H-imidazo[4,5-c]pyridin-1-yl)piperidin-1-yl)methyl)-4-methyl-1H-indole-2-carbonitrile]	< 100	≥ 1000
Cc1c(CN2CCC(n3c(=O)n(-c4ccc(F)cc4C(=O)N(C)C(C)C)c4cnccc43)CC2)ccc2[nH]c(C#N)cc12 [Example 82, 2-(1-(1-((2-cyano-4-methyl-1H-indol-5-yl)methyl)piperidin-4-yl)-2-oxo-1,2-dihydro-3H-imidazo[4,5-c]pyridin-3-yl)-5-fluoro-N-isopropyl-N-methylbenzamide]	< 100	< 100

Source: patent US10899758B2, “Inhibitors of the menin-MLL interaction” (Vitae Pharmaceuticals, LLC, priority 2016, dated 2021)
